Active and inactive are the calls of the source. The rule behind the calls is not given here.

Series [1] in a line: Retention time of the compound. Format: physicochemical.
Series [2] addresses Neuraminidase (Influenza A virus) (UniProt B4URF0). Put plainly: (§1) Inhibition of recombinant Influenza A virus H1N1 neuraminidase.
Series [3] addresses T1, Neuraminidase (Influenza A virus, UniProt B4URF0). Described as §1.
Series [4] has as its target Neuraminidase (Influenza A virus) (UniProt B4URF0). Put plainly: (§2) Inhibition of recombinant Influenza A virus H5N1 neuraminidase.
Series [5] addresses T1, Neuraminidase. Described as §2.
For series [6], the target named is T1, Neuraminidase. Kind of series: Inhibition of recombinant Influenza A virus H3N2 neuraminidase.
The target in series [7] is Neuraminidase (Influenza A virus) (UniProt B4URF0). Put plainly: Noncompetitive inhibition of recombinant Influenza A virus H1N1 neuraminidase using MU-NANA as substrate.
Series [8] can be described thus: Cytotoxicity against MDCK cells by SRB assay. In kind it is cell-based, Canis lupus familiaris. To be noted: dog.
In series [9] the test system is Influenza A virus. Kind of series: Antiviral activity against Influenza A virus H1N1 infected in MDCK cells assessed as inhibition of virus-induced cytopathic effect by SRB assay. In kind it is functional, organism-based.
The nature of series [10]: Therapeutic index, ratio of CC50 for MDCK cells to IC50 for Influenza A virus H1N1. Format: cell-based. To be noted: dog, read-out: Ratio CC50/IC50.
The subject of series [11] is Influenza A virus. Put plainly: Antiviral activity against Influenza A virus H1N1 infected in MDCK cells assessed as inhibition of virus-induced change in cell morphology at 10 ug/ml after 2 days by microscopic analysis. In kind it is functional, organism-based.
The target of series [12] is Neuraminidase (Influenza A virus) (UniProt B4URF0). Kind of series: Ratio of hispidin IC50 to compound IC50 for recombinant Influenza A virus H1N1 neuraminidase.
Series [13] has as its system Influenza A virus. Put plainly: Ratio of zanamivir IC50 to compound IC50 for Influenza A virus H1N1 infected in MDCK cells assessed as inhibition of virus-induced cytopathic effect by SRB assay. In kind it is functional.

In series [1], `O=c1cc(O)cc(/C=C/c2ccc(O)c(O)c2)o1` [HISPIDIN] came in with a Retention_time of 11.6 min. Besides, the inhibition entry in series [2] and in series [4] was “Dose-dependent effect” in each case. Further, the IC50 in series [3] worked out at 50.9 µM; in [5], 16.9 µM; in series [6], 45.2 µM; in series [9], 57.9 µM. In addition, in series [7], the Kiuc is 43 µM. The compound further registered a CC50 in series [8] of more than 100 µM. Besides, the selectivity ratio in series [10] is more than 1.7. Further, in series [11], the inhibition result is “Active”.

Regarding `CC1=CC(=O)[C@H](c2c(O)cc(/C=C/c3ccc(O)c(O)c3)oc2=O)[C@@H](c2ccc(O)c(O)c2)O1` [DAVALLIALACTONE], in [1], the Retention_time stood at 9 min. The inhibition entry in series [2] and in series [4] was “Dose-dependent effect” in each case. Also, the IC50 is 14.2 µM in series [3], 21.8 µM in series [5], 21.1 µM in series [6] and 42.8 µM in series [9]. Moreover, the Kiuc in series [7] amounted to 27.6 µM. For the same compound, in series [12], the Ratio IC50 is 3.6. In [8], this compound had a CC50 of 680 µM. The selectivity ratio in series [10] stood at 2.3. The inhibition entry in [11] was “Active”.

In series [1], `O=c1oc2cc(/C=C/c3ccc(O)c(O)c3)oc(=O)c2c2cc(O)c(O)cc12` [PHELLIGRIDIN D] displayed a Retention_time of 18.8 min. The inhibition entry in series [2] and in [4] was “Dose-dependent effect” each time. The IC50 was 8.8 µM in series [3], 10.9 µM in [5], 10.3 µM in [6] and 24.6 µM in series [9]. Moreover, the Kiuc in series [7] was 15.9 µM. Also, in series [12], the Ratio IC50 was determined as 5.8. For the same compound, the CC50 in [8] was more than 100 µM. In addition, in series [10], the selectivity ratio is more than 4.1. Besides, in series [11], the inhibition entry was “Active”.

Regarding `CC(=O)N[C@H]1[C@H]([C@H](O)[C@H](O)CO)OC(C(=O)O)=C[C@@H]1NC(=N)N` [ZANAMIVIR], the IC50 in series [9] came out at 0.0647 µM. Also, in [11], the inhibition result was “Active”.

`CC1=CC(=O)C2(O1)c1c(cc(/C=C/c3ccc(O)c(O)c3)oc1=O)OC2c1ccc(O)c(O)c1` (configuration not stated) [INOSCAVIN A] showed a Retention_time in [1] of 14.9 min. Besides, the inhibition entry in series [2] and in series [4] was “Dose-dependent effect” each time. Besides, the IC50 in [3] came out at 20 µM; in series [5], 18.5 µM; in series [6], 18.5 µM; in [9], 22.6 µM. In addition, the Kiuc in series [7] was determined as 24.5 µM. In addition, the Ratio IC50 amounted to 2.5 in [12] and 2.9 in series [13]. In [8], this compound gave a CC50 of 433 µM. Also, the selectivity ratio in series [10] is 4.4. Also, the inhibition result in [11] is “Active”.

Consider `O=c1cc(O)cc([C@H]2c3c(cc(/C=C/c4ccc(O)c(O)c4)oc3=O)O[C@@H]2c2ccc(O)c(O)c2)o1` [HYPHOLOMINE B], for which the Retention_time in series [1] stood at 14.5 min. Besides, the inhibition entry in series [2] and in series [4] was “Dose-dependent effect” in each case. Moreover, the IC50 in series [3] was determined as 22.9 µM; in series [5], 12.3 µM; in series [6] it was 14.6 µM; in series [9] it was 72.8 µM. Further, the Kiuc in series [7] was found to be 20.9 µM. The Ratio IC50 in series [12] came out at 2.2. This compound also yielded a CC50 in series [8] of more than 100 µM. Moreover, in [10], the selectivity ratio was more than 1.4. In series [11], the inhibition result is “Active”.
